Experimental data published in patent publication US11207320B2, “Compositions and methods for cancer expressing PDE3A or SLFN12” (The Broad Institute, Inc., priority 2015, dated 2021).

What was measured:
HeLa cells [1] = test: Compound sensitivity testing in cell lines (48 h viability); type: cell-based; conditions: HeLa
Experimental: 1500 NCI-H1734 or 1000 A549 cells were plated in a 384-well plate in 40 μl of RPMI supplemented with 10% Fetal Bovine Serum and 1% Pen/Strep. 24 hours after plating, a compound-library of 1924 small molecules was added at a concentration of 10 μM. Staurosporine was used a positive control for cytotoxicity at a concentration of 10 μM, and DMSO was used a negative control at a concentration of 1%. All compounds were incubated for 48 hours with indicated small molecules. After 48 hours, 384-well plates were removed from the incubator and allowed to cool to room temperature for 20 minutes. Cell viability was assessed by adding 40 μl of a 25% CELLTITERGLO® (Promega) in PBS with a THERMO COMBI™ or multichannel-pipette and incubated for 10 minutes. The luminescence signal was read using a Perkin-Elmer EnVision. Viability percentage was calculated by normalizing to DMSO controls.
1000 HeLa (DMEM), 1000 A549 (RPMI), 500 MCF-7 (DMEM), 4000 PC3 (F12-K), 1000 NCI-H2122 (RPMI) or 1500 NCI-H1563 (RPMI) cells were plated in a 384-well plate in 40 μl of corresponding growth media supplemented with 10% Fetal Bovine Serum. 24 hours after plating, indicated compounds were added at indicated concentrations and incubated for 48 hours. Cell viability was assessed as described in Compound library screening in NCI-H1734 and A549 cell lines.

PDE3A = PDE3A (Homo sapiens, UniProt Q14432); test: Linker-affinity purification of molecular target of DNMDP and immunoblotting; type: binding; design: Immunoprecipitation of endogenous PDE3A in HeLa cells; endogenous in cells; host or cells: HeLa; conditions: HeLa cell lysate, competitor 10 μM, immunoblot for PDE3A
Experimental: To identify the molecular target of DNMDP, an affinity purification was performed using an (R)-des-nitro-DNMDP solid-phase tethered linker analogue (FIG. 10A) incubated with HeLa cell lysate. […] It was competed for the molecular target by adding either an excess of trequinsin or separate enantiomers of DNMDP, where only the (R)-enantiomer was cytotoxic. […] Binding of PDE3A to the linker analogue was blocked by both trequinsin and (R)-DNMDP, but not by the non-cytotoxic enantiomer (S)-[…]. 9C). Thus both trequinsin and (R)-DNMDP prevented the binding of PDE3A to the tethered DNMDP analogue, and it was concluded that both molecules bind PDE3A directly. HeLa cells were washed with ice-cold PBS before lysed with NP-40 lysis buffer (150 mM NaCl, 10% glycerol, 50 mM Tris-Cl pH 8.0, 50 mM MgCl2, 1% NP-40) supplemented with EDTA-free protease inhibitors (Roche) and phosphatase inhibitor mixtures I and II (Calbiochem). […] Samples were washed three times with lysis buffer containing corresponding compound concentrations of 10 μM. Proteins bound to Affi-Gel 102 resin were reduced, denatured, and separated using Tris-Glycine gels (Novex) and transferred to nitrocellulose membranes using the iBlot transfer system (Novex). Membranes were incubated overnight at 4° C. with primary antibodies against PDE3A (1:1000, Bethyl). […]

HeLa cells [2] = type: cell-based; conditions: 48 hours; for rescue of cell death induced by DNMDP, rank in bioactives screen: 20 μM compound + 30 nM DNMDP, 1600 compounds; for rescue of DNMDP cytotoxicity / competition with DNMDP: dose-response up to 10 μM, co-treated with DNMDP
Experimental: HeLa cells were co-treated with 30 nM DNMDP (the EC70 concentration) and 20 μM of each bioactive compound. Cell viability after 48-hour treatment was assessed by ATP consumption as described earlier.
1000 HeLa cells were plated in a 384-well plate in 40 μl of DMEM supplemented with 10% Fetal Bovine Serum and 1% Pen/Strep. 24 hours after plating, a compound-library of 1600 bioactive molecules (Pharmacon) was added at a concentration of 20 μM. In parallel to bioactive compound incubation, DNMDP was added to a final concentration of 30 nM and incubated for 48 hours. Cell viability was assessed as described in Compound library screening in NCI-H1734 and A549 cell lines.

PDE3A(677-1141) = target: T1, PDE3A(677-1141) (Homo sapiens, UniProt Q14432); test: Differential scanning fluorimetry (DSF) binding; conditions: 5 μM protein, 100 μM compound
T1 construct: purified PDE3A catalytic domain, PDE3A(677-1141)
Experimental: Binding buffer: 20 mM Hepes pH 7.4, 100 μM TCEP, 1 mM MgCl2, 150 mM NaCl.

PDE3A and SLFN12 = target: T2, PDE3A and SLFN12 (Homo sapiens, UniProt Q14432); test: Validation of DNMDP-induced PDE3A protein interactions using immunoprecipitation and immunoblotting; type: cell-based; conditions: FIG. 20, affinity reagents, immunoblot
T2 construct: Endogenous PDE3A was immunoprecipitated; host or cells: HeLa
Experimental: FIG. 19 is an immunoblot showing that DNMDP induces interaction between PDE3A and SIRT7 and SLFN12 in HeLa cells. HeLa cells were transfected with indicated plasmids and treated with indicated compounds with a final concentration of 10 μM for four hours. Endogenous PDE3A was immunoprecipitated and immunoblotted for V5 to identify novel interaction with SIRT7 and SLFN12 (upper two panels). Immunoprecipitate input was immunoblotted for PDE3A and V5 (lower two panels). V5-SLFN12 was undetectable in whole cell lysate.
FIG. 20 is an immunoblot showing confirmation of mass spectrometric results herein using affinity reagents.
HeLa cells were transfected with ORF overexpression constructs expressing V5-tagged SIRT7, V5-tagged SLFN12, or V5-tagged GFP. ORF expression constructs were obtained from the TRC (clone IDs: TRCN0000468231, TRCN0000476272, ccsbBroad304_99997). At 72 hours post transfection, cells were treated with 10 μM DNMDP or trequinsin for 4 hours followed by lysis using the ModRipa lysis buffer and immunoprecipitation of PDE3A. For each condition, 2 mg total protein lysate was incubated with 1 μg of anti-PDE3A antibody at 4° C. overnight, after which 7.5 μl each of Protein A- and Protein G-Dynabeads (Life Technologies 10001D and 10003D) were added and incubated for another 1 hour. Beads were washed and bound proteins were eluted with 30 μl of LDS PAGE gel loading buffer. Input (˜60 μg total protein lysate) and IP products were resolved on 4-12% Tris-Glycine PAGE gels and immunoblotted with an anti-V5 antibody (Life Technologies R96205, 1:5000), the Bethyl anti-PDE3A antibody (1:1000), and secondary antibodies from LiCOR Biosciences (Cat.#926-32210 and 926068021, each at 1:10,000). Blots were washed and imaged using a LiCOR Odyssey infrared imager.

HeLa cells [3] = test: DNMDP cytotoxicity after targeting PDE3A locus using CRISPR; type: cell-based; conditions: HeLa infected with Cas9 and sgRNAs against PDE3A
Experimental: FIG. 11A is a Western blot. HeLa cells were infected with Cas9 and indicated guide RNAs (sgRNA) against PDE3A. Western blots were probed for PDE3A at indicated time points. FIG. 11B is a bar graph showing percent rescue of HeLa cells that were infected with indicated sgRNAs for two weeks and treated with 1 μM of 6-(4-(diethylamino)-3-nitrophenyl)-5-methyl-4,5-dihydropyridazin-3(2H)-one (DNMDP) for 48 hours. Percent rescue was normalized to the Cas9-only control. FIG. 11C is a plot showing viability of cells infected with indicated sgRNAs and treated with various concentrations of 6-(4-(diethylamino)-3-nitrophenyl)-5-methyl-4,5-dihydropyridazin-3(2H)-one (DNMDP).
Based on the observations that DNMDP-sensitive cells expressed high levels of PDE3A, and that DNMDP competed with non-cytotoxic inhibitors for PDE3A binding, it was hypothesized that DNMDP mediated its cytotoxic phenotype through the interaction with PDE3A and that PDE3A abundance was a direct cellular determinant of DNMDP sensitivity. To validate this hypothesis, the effect of reducing levels of PDE3A on the response to DNMDP was tested. […] In an independent approach using an siRNA smart-pool containing four different siRNAs targeting PDE3A, PDE3A expression was reduced in HeLa cell line with a maximum efficiency of 70% between 24 and 72 hours after transfection. […]

T1 sequence (Q14432 677-1141): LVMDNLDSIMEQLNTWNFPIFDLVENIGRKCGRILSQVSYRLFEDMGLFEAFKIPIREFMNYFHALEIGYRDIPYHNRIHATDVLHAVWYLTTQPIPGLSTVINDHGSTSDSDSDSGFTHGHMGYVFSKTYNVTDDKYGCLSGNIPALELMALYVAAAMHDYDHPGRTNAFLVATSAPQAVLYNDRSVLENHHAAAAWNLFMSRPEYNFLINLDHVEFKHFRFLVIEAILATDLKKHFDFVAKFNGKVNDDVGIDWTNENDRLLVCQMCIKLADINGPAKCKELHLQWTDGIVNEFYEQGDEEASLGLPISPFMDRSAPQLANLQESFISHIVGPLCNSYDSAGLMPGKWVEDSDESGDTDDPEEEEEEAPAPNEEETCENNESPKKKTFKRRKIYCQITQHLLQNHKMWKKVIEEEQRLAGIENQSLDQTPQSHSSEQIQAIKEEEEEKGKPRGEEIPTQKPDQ
T2 sequence (Q14432 whole entry): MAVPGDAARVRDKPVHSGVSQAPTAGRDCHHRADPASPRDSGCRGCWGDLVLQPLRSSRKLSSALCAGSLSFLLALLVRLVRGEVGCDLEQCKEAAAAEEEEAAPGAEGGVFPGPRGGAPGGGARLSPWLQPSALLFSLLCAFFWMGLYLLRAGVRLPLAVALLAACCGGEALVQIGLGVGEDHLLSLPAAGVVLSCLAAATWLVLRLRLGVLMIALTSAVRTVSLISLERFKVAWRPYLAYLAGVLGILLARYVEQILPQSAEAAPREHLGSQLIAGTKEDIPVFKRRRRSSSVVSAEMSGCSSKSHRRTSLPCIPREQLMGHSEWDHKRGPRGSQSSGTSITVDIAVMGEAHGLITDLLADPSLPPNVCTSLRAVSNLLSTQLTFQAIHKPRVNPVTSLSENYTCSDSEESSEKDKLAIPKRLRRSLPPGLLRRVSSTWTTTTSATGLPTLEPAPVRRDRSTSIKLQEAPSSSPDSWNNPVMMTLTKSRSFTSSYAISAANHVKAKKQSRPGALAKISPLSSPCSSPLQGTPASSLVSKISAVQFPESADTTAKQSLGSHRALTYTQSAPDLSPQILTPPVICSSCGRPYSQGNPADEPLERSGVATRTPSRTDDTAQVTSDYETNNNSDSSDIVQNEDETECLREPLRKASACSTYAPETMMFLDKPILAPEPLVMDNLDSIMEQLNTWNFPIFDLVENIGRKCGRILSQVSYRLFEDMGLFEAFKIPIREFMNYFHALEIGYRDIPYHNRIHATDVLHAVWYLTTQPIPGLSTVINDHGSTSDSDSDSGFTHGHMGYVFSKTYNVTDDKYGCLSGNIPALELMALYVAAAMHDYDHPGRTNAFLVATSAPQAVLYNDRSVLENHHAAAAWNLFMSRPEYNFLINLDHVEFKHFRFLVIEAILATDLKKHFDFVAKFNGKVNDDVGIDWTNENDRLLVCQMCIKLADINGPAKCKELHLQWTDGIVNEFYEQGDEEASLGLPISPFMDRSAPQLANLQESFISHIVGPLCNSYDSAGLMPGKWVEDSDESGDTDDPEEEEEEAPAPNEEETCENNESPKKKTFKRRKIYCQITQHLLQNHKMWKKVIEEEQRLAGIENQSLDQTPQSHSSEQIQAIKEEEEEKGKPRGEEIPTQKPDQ
T2 sequence (Q8IYM2 whole entry partner): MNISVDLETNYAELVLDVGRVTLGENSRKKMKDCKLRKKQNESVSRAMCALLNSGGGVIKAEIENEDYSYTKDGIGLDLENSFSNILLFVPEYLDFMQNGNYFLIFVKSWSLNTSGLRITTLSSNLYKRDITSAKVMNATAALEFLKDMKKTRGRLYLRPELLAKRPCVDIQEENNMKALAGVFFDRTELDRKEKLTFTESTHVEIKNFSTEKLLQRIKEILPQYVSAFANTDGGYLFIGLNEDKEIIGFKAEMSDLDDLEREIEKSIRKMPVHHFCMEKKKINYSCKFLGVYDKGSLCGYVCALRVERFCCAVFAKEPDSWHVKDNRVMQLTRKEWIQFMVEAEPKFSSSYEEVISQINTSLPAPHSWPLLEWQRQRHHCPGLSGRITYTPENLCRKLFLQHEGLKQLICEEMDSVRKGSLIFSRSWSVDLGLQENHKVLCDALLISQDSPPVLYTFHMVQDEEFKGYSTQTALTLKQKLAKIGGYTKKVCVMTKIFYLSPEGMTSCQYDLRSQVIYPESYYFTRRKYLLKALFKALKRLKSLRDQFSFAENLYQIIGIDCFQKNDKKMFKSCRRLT
PDE3A, sequence (Q14432 whole entry): as the sequence (Q14432 whole entry) above

SMILES: CCN(CC)c1ccc(C2=NNC(=O)C[C@H]2C)cc1[N+](=O)[O-] [(R)-DNMDP, (R)-6-(4-(diethylamino)-3-nitrophenyl)-5-methyl-4,5-dihydropyridazin-3(2H)-one]
- effect on HeLa cell viability / cytotoxicity (HeLa cells [1]): cytotoxic
- fold lower EC50 compared to the (S)-enantiomer (HeLa cells [1]): 500 fold
- blocking of binding of PDE3A to the tethered linker analogue (PDE3A): blocked

SMILES: CCN(CC)c1ccc(C2=NNC(=O)C[C@@H]2C)cc1[N+](=O)[O-] [(S)-DNMDP]
- effect on HeLa cell viability / cytotoxicity (HeLa cells [1]): non-cytotoxic

SMILES: Cc1[nH]c(=O)c(C#N)cc1-c1ccncc1 [milrinone, 2-methyl-6-oxo-1,6-dihydro-3,4′-bipyridine-5-carbonitrile]
- rescue of cell death induced by DNMDP, rank in bioactives screen (HeLa cells [2]): three most potent compounds
- rescue of DNMDP cytotoxicity / competition with DNMDP (HeLa cells [2]): able to rescue DNMDP cytotoxicity in a dose-dependent manner

SMILES: CC(C)C(=O)c1c(C(C)C)nn2ccccc12 [idubulast]
- rescue of DNMDP cytotoxicity / competition with DNMDP (HeLa cells [2]): not effective competitors

SMILES: CCN(CCOCCOCCNC(=O)OC(C)(C)C)c1ccc(C2=NNC(=O)C[C@H]2C)cc1 [DNMDP-2L, tert-butyl (R)-(2-(2-(2-(ethyl(4-(4-methyl-6-oxo-1,4,5,6-tetrahydropyridazin-3-yl)phenyl)amino)ethoxy)ethoxy)ethyl)carbamate]
- rescue of DNMDP cytotoxicity / competition with DNMDP (HeLa cells [2]): same DNMDP cytotoxicity rescue phenotype as non-cytotoxic PDE3 inhibitors

SMILES: O=C1CCc2cc(OCCCCc3nnnn3C3CCCCC3)ccc2N1 [cilostazol, 6-[4-(1-cyclohexyl-1H-tetrazol-5-yl)butoxy]-3,4-dihydro-2(1H)-quinolinone]
- rescue of cell death induced by DNMDP, rank in bioactives screen (HeLa cells [2]): three most potent compounds

SMILES: CCCc1nn(C)c2c(=O)[nH]c(-c3cc(S(=O)(=O)N4CCN(C)CC4)ccc3OCC)nc12 [sildenafil, 1-[4-ethoxy-3-(6,7-dihydro-1-methyl-7-oxo-3-propyl-1H-pyrazolo[4,3-d]pyrimidin-5-yl)phenylsulfonyl]-4-methylpiperazine]
- rescue of DNMDP cytotoxicity / competition with DNMDP (HeLa cells [2]): not effective competitors

SMILES: O=C1CN2Cc3c(ccc(Cl)c3Cl)N=C2N1 [anagrelide, 6,7-dichloro-1,5-dihydroimidazo (2,1-b)quinazolin-2(3H)-one]
- Tm (° C.) (PDE3A(677-1141)): 56.6 ± 0.0 °C
- ΔTm at 100 µM (PDE3A(677-1141)): 4.2 °C
- PDE3A and SLFN12 complex formation (PDE3A and SLFN12): weakly

SMILES: CN(C(=O)CCCOc1ccc2[nH]c(=O)ccc2c1)C1CCCCC1 [cilostamide]
- rescue of DNMDP cytotoxicity / competition with DNMDP (HeLa cells [2]): able to rescue DNMDP cytotoxicity in a dose-dependent manner

SMILES: C[C@@H]1CC(=O)NN=C1c1ccc(N2CCOCC2)cc1 [Compound 3]
- rescue of toxicity by PDE3A sgRNA2 and sgRNA3 (HeLa cells [3]): significant rescue of toxicity

SMILES: CCCc1nc(C)c2c(=O)[nH]c(-c3cc(S(=O)(=O)N4CCN(CC)CC4)ccc3OCC)nn12 [vardenafil, 4-[2-ethoxy-5-(4-ethylpiperazin-1-yl)sulfonyl-phenyl]-9-methyl-7-propyl-3,5,6,8-tetrazabicyclo[4.3.0]nona-3,7,9-trien-2-one]
- rescue of DNMDP cytotoxicity / competition with DNMDP (HeLa cells [2]): not effective competitors
